Assay results taken from patent US9187411B2, “Leukotriene B4 antagonist compound” (Eli Lilly and Company, priority 2012, dated 2015).
pKi: −log10 of the molar value. Where two headings read alike, the source gives them in different places.

Target: T1, hBLT1 (Homo sapiens, UniProt Q15722)
T1 construct: expressed in transfected cells; membrane preparation
Assay: [3H]-LTB4 binding assay in hBLT1 containing membranes
Conditions: [3H]-LTB4 displacement, hBLT1/CHO-K1 membranes, Ki = IC50/2.7
Description: [^3H]-LTB4 and known BLT1 and BLT2 antagonists are used to generate LTB4 displacement curves and IC50 values for compounds of the present invention. Receptor inhibition by compounds of the present invention is determined relative to BLT1 inhibitor and BLT2 inhibitor reference molecules to obtain percent efficacies.
hBLT1 Test Compound Preparations: For hBLT1 assays, test compounds are prepared in DMSO to make up a 10 mM stock solution. […]
hBLT1/CHO-K1 Stable Xcell Line Preparations: Human BLT1 receptor DNA (National Center for Biotechnology Information (NCBI), Reference Sequence NM_181657) is synthesized and cloned into expression vector pcDNA3.1/Hygro(+) (Invitrogen V87020). […] Single clones are isolated and screened for BLT1 expression and function using Western Blot analysis and Fluorometric Imaging Plate Reader (FLIPR®) calcium release assay. […]
[^3H]-LTB4 (30 μL of 1.3 nM, PerkinElmer NET-852) is aliquoted into a 96-well Millipore Multiscreen-filter binding plate (catalogue number MAFBNOB10) which is pre-wetted with Buffer A (50 mM HEPES pH 7.4, 10 mM MgCl2, 10 mM NaCl, 10% glycerol, 1% BSA). […] The plate is allowed to sit for 16 h and then read on a Packard Instrument Company Topcount® for 1 min. […] The IC50s are converted to Ki values by dividing by 2.7 (previously calculated). […]

T1 sequence (Q15722 whole entry): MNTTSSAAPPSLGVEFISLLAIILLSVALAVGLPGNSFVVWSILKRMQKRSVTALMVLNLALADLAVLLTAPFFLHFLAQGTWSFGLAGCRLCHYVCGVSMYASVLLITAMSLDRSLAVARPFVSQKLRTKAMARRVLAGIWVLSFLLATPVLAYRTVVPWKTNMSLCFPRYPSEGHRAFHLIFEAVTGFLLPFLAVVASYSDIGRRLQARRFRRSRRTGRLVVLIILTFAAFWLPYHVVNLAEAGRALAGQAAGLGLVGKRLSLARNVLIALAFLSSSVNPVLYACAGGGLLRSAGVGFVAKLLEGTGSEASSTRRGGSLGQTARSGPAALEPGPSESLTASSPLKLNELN

`CCCc1c(NC(=O)CC(C)(C)C(=O)[O-])cccc1OCCCOc1cc(O)c(-c2ccc(F)cc2)cc1CC.[Na+]` [Example 2, Sodium 4-[[3-[3-[2-ethyl-4-(4-fluorophenyl)-5-hydroxy-phenoxy]propoxy]-2-propyl-phenyl]amino]-2,2-dimethyl-4-oxo-butanoate] showed a pKi (read-out: absolute Ki) of 8.26 and a pKi (read-out: relative Ki) of 7.98.
